Results as given in a melting point compilation (Tetko et al.; mined from patent text by program, amines drawn as free bases though some values may be those of a salt).

Row | melting point | Structure (SMILES)
1 | 148 to 150 °C | Cc1cccc(CC(=S)Nc2ccccc2C(=O)O)c1
2 | 137 to 138 °C | CCOC(=O)CNc1ncccc1NC(=O)c1ccc(Cl)c(Cl)c1
3 | 95.5 to 97.5 °C | CCCc1c(OCCCCCOc2ccc3c(c2CCC)OC(C(=O)O)CC3O)ccc(C(C)=O)c1O (configuration not stated)
4 | 93 to 94 °C | CCOC(=O)c1ccc(NCCCOc2cccc3ccccc23)cc1
5 | 128 to 130 °C | S=C(NCN1CCOCC1)C(c1ccccc1)c1ccccn1 (configuration not stated)
6 | 79 °C | c1ccc(N2CCN(CCc3ccc4ccccc4n3)CC2)cc1
7 | 125 to 129 °C | CS(C)=Nc1nc(OCc2ccccc2)ncc1F
8 | 140 °C | O=C1CCCCN1CCCOC1c2ccccc2C(=O)N1c1ccc2ccc(Cl)nc2n1 (configuration not stated)
9 | 234 to 236 °C | CCCNC(=O)Nc1c(C(=O)c2ccccc2)[nH]c2cc(Cl)ccc12
10 | 108 to 109 °C | CCC(CO)(OC)c1ccc(-c2ccc(OC)cc2)cc1 (configuration not stated)
11 | 121 to 123 °C | O=C1N(Cc2ccc(Cl)cc2)c2ccccc2C1(O)CC(F)(F)c1cccs1 (configuration not stated)
12 | 91 to 92 °C | CON=C(Cl)c1ccccc1OCc1ccc(Cl)cc1Cl
13 | 158 to 160 °C | CCCCS(=O)(=O)Nc1ccc(OCc2ccc3ccccc3n2)c(C#N)c1
14 | 193 to 195 °C | CC(C)c1ccc(-c2nc(-c3cccc(C(=O)O)c3)cs2)cc1
15 | 180 to 182 °C | COc1ccc(C(=O)NNC(=O)c2occ(-c3ccccc3)c2-c2ccccc2)cc1NS(C)(=O)=O
16 | 146 to 147 °C | NCCCOc1cccc2[nH]c3ccccc3c12
17 | 97 to 99 °C | C[C@@H](Cn1ncc2ccc(OCCO)c(Br)c21)NC(=O)OCc1ccccc1
18 | 195 to 197 °C | NC(=O)c1ccnc(-c2ccc(Oc3ccc(F)cc3)cc2)n1
19 | 88 to 90 °C | CSCC[C@@H]1C(=O)N(C)[C@H]([C@H](C)c2cccc3ccccc23)C(=O)N1C
20 | 161 to 162 °C | O=C(O)Cc1ccc2nc(-c3ccccc3)ccc2c1
21 | 194 to 196 °C | O=C(Nc1cccc2c(-c3ccccc3)c([N+](=O)[O-])oc12)C(F)(F)F
22 | 240 °C | Fc1cccc(-c2ncc(-c3cnc(-c4ccccc4)[nH]3)cn2)c1
23 | 50.7 °C | Nc1cccc(Cc2ccccc2)n1
24 | 151 °C | CCOc1nc(CC)c(CNC(=O)C(S)CC(C)C)n1Cc1ccc(-c2ccccc2C(=O)O)cc1F (configuration not stated)
25 | 257 to 259 °C | c1ccc2c(N3CCN(CCc4ccc(-c5csnn5)cc4)CC3)nsc2c1
26 | 164 to 165 °C | CN1CCc2c(sc(N)c2C(=O)c2ccccc2)C1

Second part, the compound before the results:

Row | Structure (SMILES) | melting point
27 | CCn1nc(C)c2c1C1=NCCN1C(C)=N2 | 168 to 170 °C
28 | NC(=O)NN=Cc1ccc(OC2CCCCCC2)cc1 | 215 to 216 °C
29 | CCCN(CCC)C(=O)n1cc(C)c2c1CC1(c3cccc(O)c3)CCN(CC)CC1C2 (configuration not stated) | 151 to 153 °C
30 | O=[N+]([O-])c1cc(-c2nnc(Cl)cc2O)ccc1Cl | 204 to 209 °C
31 | CCCc1c(OCC2Cc3c(ccc(C(C)=O)c3O)O2)ccc(C(C)=O)c1O (configuration not stated) | 104 to 106 °C
32 | CC1(C)OC(=O)C(Oc2cc(F)cc(F)c2)=C1c1ccc(S(C)(=O)=O)cc1 | 159 to 161 °C
33 | Cc1cccc2ncc(C(=O)NC(C)(C)CC(C)(C)C)c(=O)n12 | 126 to 129 °C
34 | O=C(O)Cc1c(C(=O)c2ccc(Cl)cc2)[nH]c2cc(F)ccc12 | 214 °C
35 | CC1(C)Cc2c(sc(N)c2C(N)=O)CO1 | 212 to 214 °C
36 | CC1(C)C=C(CCl)CS1(=O)=O | 59 to 60 °C
37 | O=c1[nH]c2cc(Cl)ccc2c(O)c1-c1cccc(C#Cc2ccccc2)c1 | 297 to 300 °C
38 | C[C@@H](CNC(=O)OC(C)(C)C)c1ccc(O)c(O)c1 | 116 to 118 °C
39 | CN1C(C)(C)CC(OC(=O)CCC(C)(c2ccc(O)c(C(C)(C)C)c2)c2ccc(O)c(C(C)(C)C)c2)CC1(C)C | 203 °C
40 | CCOC(=O)COc1ccc([N+](=O)[O-])cc1Cl | 73 to 74 °C
41 | CCCS(=O)(=O)c1nc2cc(-n3nc(C)n(C)c3=O)c(F)cc2s1 | 196 to 198 °C
42 | Cc1ccc(C(C)(C)Cl)cc1C | -20 to -19 °C
43 | CCc1cc2c(-c3ccccc3Cl)c([N+](=O)[O-])cnc2s1 | 72 to 73 °C
44 | Cc1cccc(-c2n[nH]cc2-c2ccc(F)c(-c3cn4c(n3)S(=O)CC4)c2)n1 (configuration not stated) | 140 to 144 °C
45 | O=C1CC2(CN1)CC(=O)c1cc(F)ccc12 (configuration not stated) | 198 to 202 °C
46 | O=C(Nc1ccc2nc(CN3CCCCC3)ccc2c1)c1ccc(-c2ccc(Cl)cc2)cc1 | 211 to 213 °C
47 | O=C(c1ccc([N+](=O)[O-])cc1)N1Cc2ccccc2Cc2cc(Cl)ccc21 | 198 to 201 °C
48 | COc1cc(OC)nc(NC(=O)CC(F)=C(F)F)n1 | 127 to 130 °C
49 | Cc1ccc2c(c1)c(O)c(C(=O)NC1CCCCC1)c(=O)n2Cc1ccccc1 | 87 °C

Row | Structure (SMILES) | melting point
50 | Cc1ccn2cc(CN3CCN(c4ccc(C(N)=O)cc4)CC3)nc2c1 | 217 to 218 °C
51 | Cc1c(C)c(Br)c2c(c1C)C(=O)C(C)(C)O2 | 145 to 146 °C
52 | Oc1cc(Cl)ccc1Br | 56 °C
53 | CC12CC(=O)C3C(CCC4CC(O)CCC43C)C1CCC2C(=O)CCO (configuration not stated) | 156 to 158 °C
54 | Clc1nnc(Nc2cc(CN3CCCC3)cc(CN3CCCC3)c2)c2ccccc12 | 180 to 183 °C
55 | Nc1c(SC(F)(F)F)c(C(=O)O)nn1-c1c(Cl)cc(C(F)(F)F)cc1Cl | 199 °C
56 | CCN(CC1CC1)c1c([N+](=O)[O-])cc(C(F)(F)F)c(N)c1[N+](=O)[O-] | 99 to 100 °C
57 | O=Cc1ccc(OS(=O)(=O)C(F)(F)F)cc1Cl | 125 to 127 °C
58 | Cc1ccc(F)cc1C1CC(=O)CC(=O)C1 | 175 to 176 °C
59 | COc1cc(C(=O)CCCN2CCC(OC(=O)c3cc(Cl)c(N)c4cc(C)oc34)CC2)cc(OC)c1OC | 129 °C
60 | O=S(=O)(c1ccc(Cl)cc1)N1c2ccccc2CCC1c1ccc(CN2CCSCC2)cc1 (configuration not stated) | 134 to 136 °C
61 | Oc1ccc([C@@H]2C[C@H]2c2ccc(O)cc2)cc1 (relative stereo) | 190 to 191 °C
62 | Nc1nc(-n2cc(C(=O)O)c(=O)c3cc(F)c(NCCCO)c(Cl)c32)c(F)cc1F | 136 to 142 °C
63 | O=C(CN1CCN(C(c2ccc(F)cc2)c2ccc(F)cc2)CC1)NC1(C(=O)O)Cc2ccc(-c3ccc(Cl)cc3)cc2C1 (configuration not stated) | 184 °C
64 | Cc1cc2c(cc1C)C1(CO2)C(=O)N(CC2CCOCC2)c2ccccc21 (configuration not stated) | 199 to 201 °C
65 | CCOC(=O)Cc1nc(N)cc(Cl)n1 | 127 to 128 °C
66 | Cc1ccc(-c2cncnc2Cl)cc1 | 67 to 70 °C
67 | COc1ccc(F)cc1C(C)(C)CC(O)(C(=O)O)C(F)(F)F (configuration not stated) | 102 to 104 °C
68 | O=C1NCN(c2ccccc2)C12CCN(CCCNc1ccc(F)cc1)CC2 | 158 to 162 °C
69 | CCCCCCOc1cc(-c2cccc([N+](=O)[O-])c2)c(OCCCCCC)cc1-c1cccc([N+](=O)[O-])c1 | 126 to 127 °C
70 | COc1ncc(S(C)(=O)=O)cc1CCC(=O)c1ccc(Cl)c(Cl)c1 | 145 to 146 °C
71 | CSCc1ccc(C(=O)c2ccc(Cl)cc2)cc1 | 59 to 61 °C
72 | Cc1sc2c(c1C(=O)c1ccc(S(C)=O)cc1)CCC2C(=O)O (configuration not stated) | 209 to 213 °C
